Assay results as given in patent US20260001864A1, “COMPOUND CONTAINING SULFAMIDE STRUCTURE, AND PREPARATION METHOD THEREFOR AND APPLICATION THEREOF, AND PHARMACEUTICAL COMPOSITION AND APPLICATION” (Nanjing Shuohui Pharmatechnology Co., Ltd, priority 2021, published 2026).
Counter-ions that a name gives are not always drawn.

Each compound was assayed against H+/K+-ATPase (rabbit gastric mucosal microsomes) (Oryctolagus cuniculus (Rabbit), UniProt P27112) (assay: In vitro screening test of H+/K+-ATPase inhibition (malachite green)). Settings: pH 6.5, 37° C. 30 min, read-out: IC50, inhibitory effect on H+/K+-ATPase activity.
Sequence of H+/K+-ATPase (rabbit gastric mucosal microsomes) (P27112 whole entry): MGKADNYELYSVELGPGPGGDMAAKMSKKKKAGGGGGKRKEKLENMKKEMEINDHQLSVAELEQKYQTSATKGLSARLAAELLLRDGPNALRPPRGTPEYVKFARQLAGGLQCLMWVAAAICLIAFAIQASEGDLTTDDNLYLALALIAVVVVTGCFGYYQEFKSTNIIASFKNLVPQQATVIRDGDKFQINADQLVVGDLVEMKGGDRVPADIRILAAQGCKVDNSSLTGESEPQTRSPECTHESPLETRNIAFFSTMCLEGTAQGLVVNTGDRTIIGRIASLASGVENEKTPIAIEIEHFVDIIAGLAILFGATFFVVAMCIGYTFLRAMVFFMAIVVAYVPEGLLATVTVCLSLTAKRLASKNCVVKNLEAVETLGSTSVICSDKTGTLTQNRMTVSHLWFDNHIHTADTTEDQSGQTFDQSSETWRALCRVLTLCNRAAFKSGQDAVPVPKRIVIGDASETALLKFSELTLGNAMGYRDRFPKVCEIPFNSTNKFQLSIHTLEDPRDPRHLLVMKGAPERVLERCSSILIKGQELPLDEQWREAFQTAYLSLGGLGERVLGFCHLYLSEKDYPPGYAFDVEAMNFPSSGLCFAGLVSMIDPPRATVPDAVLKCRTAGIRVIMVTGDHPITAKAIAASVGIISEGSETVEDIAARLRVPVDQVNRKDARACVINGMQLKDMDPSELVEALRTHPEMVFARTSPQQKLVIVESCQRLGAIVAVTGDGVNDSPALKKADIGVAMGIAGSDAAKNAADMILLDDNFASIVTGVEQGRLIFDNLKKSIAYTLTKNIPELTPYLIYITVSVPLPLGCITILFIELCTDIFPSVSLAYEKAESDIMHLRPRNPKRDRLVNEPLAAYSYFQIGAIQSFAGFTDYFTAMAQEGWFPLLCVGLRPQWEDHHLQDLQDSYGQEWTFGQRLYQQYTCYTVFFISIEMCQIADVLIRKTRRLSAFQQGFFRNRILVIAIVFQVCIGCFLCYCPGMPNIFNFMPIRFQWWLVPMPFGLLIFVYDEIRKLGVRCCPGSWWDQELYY
Sequence of H+/K+-ATPase (rabbit gastric mucosal microsomes) (P18597 whole entry partner): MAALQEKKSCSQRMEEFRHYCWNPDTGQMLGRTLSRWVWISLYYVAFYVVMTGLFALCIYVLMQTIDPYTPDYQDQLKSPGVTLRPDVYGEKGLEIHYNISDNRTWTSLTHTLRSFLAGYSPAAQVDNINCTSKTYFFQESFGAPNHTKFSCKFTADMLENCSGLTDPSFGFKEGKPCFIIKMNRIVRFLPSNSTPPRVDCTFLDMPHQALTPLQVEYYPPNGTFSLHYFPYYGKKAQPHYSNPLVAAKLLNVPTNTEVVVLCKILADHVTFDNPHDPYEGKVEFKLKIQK
Assay type: biochemical
Excerpt: This test example evaluates the inhibitory effects of the compounds of the present invention on the activity of H+/K+-ATPase by an in vitro screening test, and expresses them with the IC50 values of the compounds (obtained by calculating the inhibition rates at different concentrations).
• Compound solutions: The products (i.e., the compounds or the hydrochloride salt of compounds) obtained in the foregoing preparation examples of the present invention were each independently dissolved in DMSO to form solutions at suitable concentrations; • Buffer I: 50 mmol/L HEPEs-Tris, pH=6.5, 5 mmol/L magnesium chloride, […] valinomycin (J&K Scientific Ltd., goods No.: 227304); • Buffer II: 50 mmol/L HEPEs-Tris, pH=6.5, 5 mmol/L magnesium chloride, […] valinomycin, 5 mmol/L potassium chloride; • 5-adenosine triphosphate (ATP, Sigma-Aldrich, goods No.: A2383) solution: Dilute ATP with buffer I to 5 mM; • Malachite green solution: Dissolve 0.12 wt % malachite green (J&K Scientific Ltd., goods No.: 913120) in 2.5 mol/L sulfuric acid, 7.5 wt % ammonium molybdate (J&K Scientific Ltd., goods No.: 128321) and 11% Tween 20(V/V). During use, sulfuric acid, ammonium molybdate and Tween 20 are mixed in a ratio of 100:25:2; • Rabbit gastric mucosal microsomes (rich in H+/K+-ATPase, self-extracted), extracted by sucrose gradient centrifugation: The rabbit stomach was washed with tap water and 3M NaCl solution, respectively, and then the surface water was removed with filter paper. A pre-cooled homogenization buffer (4 ml/g tissue) was added and homogenized for 2-5 min in a tissue homogenizer. After the homogenizing, if there are large tissue particles, they can be removed by centrifugation (600 g, 10 min). The supernatant was then transferred to a clean centrifuge tube and centrifuged at 20,000 g for 30 min, then the supernatant was transferred to a clean centrifuge tube and further centrifuged at 100,000 g for 90 min and the precipitate was collected; the precipitate was suspended in homogenate and blown evenly, and the protein concentration was measured by the Bradford's method and adjusted to 10 mg/ml; 7.5 wt % Ficoll's layering solution was added in equal proportions. After centrifugation at 100,000 g for 60 min, the middle layer (H^+/K^+-ATPase-enriched gastric membranes) was collected in a clean centrifuge tube, diluted with homogenate by 4-5 times, and then centrifuged at 100,000 g for another 90 min, and the precipitate was collected; the precipitate was suspended in homogenate and homogenized in a glass homogenizer, and the protein concentration was measured by the Bradford's method and adjusted to 22.5 mg/ml. It was frozen at −80° C. and stored for future use.
5 μL of rabbit gastric mucosal microsomes (H^+/K^+-ATPase) was added to 45 μL of buffer II, then 5 μL of compound solution was added, and then 5 μL of 5 mM ATP solution was added to start the reaction and pre-react at 37° C. for 30 min. 15 μL of malachite green solution was added to terminate the reaction, balancing was conducted at room temperature for 20 min, and read the optical absorbance at 620 nm.
Meanwhile, the reaction of the same volume was carried out without addition of potassium chloride as a background, which was subtracted when calculating enzymatic activity.

SMILES | IC50 [nM]
CNCc1cc(-c2ccc(OC(C)c3c(F)cccc3F)cc2F)n(S(=O)(=O)c2cccnc2)c1 (stereo not drawn) [Compound 67] | 41
CNCc1cc(-c2ccc(OC(C)C3CCOCC3)cc2F)n(S(=O)(=O)c2cccc(OCCCOC)c2)c1 (stereo not drawn) [Compound 37] | 157
CNCc1cc(-c2ccc(OCC(C)C)cc2F)n(S(=O)(=O)c2cccnc2)c1 [Compound 44] | 500
CNCc1cc(-c2ccc(OC(C)C3CCOCC3)cc2F)n(S(=O)(=O)c2cccc(C#N)c2)c1 (stereo not drawn) [Compound 13] | 114
CNCc1cc(-c2ccc(OC(C)C3CCOCC3)cc2F)n(S(=O)(=O)c2cccc(OCCOC)c2)c1 (stereo not drawn) [Compound 14, 1-(5-(2-fluoro-4-(1-(tetrahydro-2H-pyran-4-yl)ethoxy)phenyl)-1-((3-(2-methoxyethoxy)phenyl)sulfonyl)-1H-pyrrol-3-yl)-N-methylmethylamine-hydrochloride] | 443
CCCCCOc1cccc(S(=O)(=O)n2cc(CNC)cc2-c2ccc(OCC3CCOCC3)cc2F)c1 [Compound 31] | 1210
CNCc1cc(-c2ccc(OCC3CCOCC3)cc2F)n(S(=O)(=O)c2cccc(Cl)c2)c1 [Compound 25] | 58.5
CNCc1cc(-c2ccc(OCC(F)F)cc2F)n(S(=O)(=O)c2cccnc2)c1 [Compound 42] | 401
CNCc1cc(-c2ccc(OCC3CCOCC3)cc2F)n(S(=O)(=O)c2cccc(OCCF)c2)c1 [Compound 30] | 474
CNCc1cc(-c2ccc(OC(C)C3CCOCC3)cc2F)n(S(=O)(=O)c2ccc(C)c(F)c2)c1 (stereo not drawn) [Compound 11] | 65.2
CNCc1cc(-c2ccc(OCc3cccc4ccccc34)cc2F)n(S(=O)(=O)c2cccc(C#N)c2)c1 [Compound 63] | 1060
CNCc1cc(-c2ccc(OC[C@H]3CO3)cc2F)n(S(=O)(=O)c2cccnc2)c1 [Compound 49] | 146
CNCc1cc(-c2ccc(OCC3CCCCC3)cc2F)n(S(=O)(=O)c2cccc(OCCF)c2)c1 [Compound 35] | 8650
CNCc1cc(-c2ccc(OCc3cc(F)cc(F)c3)cc2F)n(S(=O)(=O)c2cccnc2)c1 [Compound 58] | 25.7
CNCc1cn(S(=O)(=O)c2cccnc2)c(-c2ccc(OCC3CC3)cc2F)c1F [Compound 51] | 35.2
CNCc1cc(-c2ccc(OC(C)C3CCOCC3)cc2F)n(S(=O)(=O)c2cccc(OC)c2)c1 (stereo not drawn) [Compound 15] | 83.9
CCOc1ccc(-c2cc(CNC)cn2S(=O)(=O)c2cccnc2)c(F)c1 [Compound 41] | 567
CNCc1cc(-c2ccc(OC(C)C3CCOCC3)cc2F)n(S(=O)(=O)c2cccc(C(F)(F)F)c2)c1 (stereo not drawn) [Compound 10] | 55.3
CNCc1cc(-c2ccc(OCC3CCOCC3)cc2F)n(S(=O)(=O)c2cccc(F)c2)c1 [Compound 24] | 136
CNCc1cc(-c2ccc(OC(C)C3CCOCC3)cc2F)n(S(=O)(=O)c2cccc(OCCCCOC)c2)c1 (stereo not drawn) [Compound 38] | 199
CNCc1cc(-c2ccc(OCc3c(F)cccc3F)cc2F)n(S(=O)(=O)c2cccnc2)c1 [Compound 56] | 13.3
CNCc1cc(-c2ccc(OC[C@@H]3COCCO3)cc2F)n(S(=O)(=O)c2cccnc2)c1 [Compound 1, (S)-1-(5-(4-((1,4-dioxane-2-yl)methoxy)-2-fluorophenyl)-1-(pyridine-3-ylsulfonyl)-1H-pyrrole-3-yl)-N-methyl methylamine hydrochloride] | 585
CNCc1cc(-c2ccc(OCC3CCOCC3)cc2F)n(S(=O)(=O)c2cccc(OCC3CCCC3)c2)c1 [Compound 34] | 285
CNCc1cc(-c2ccc(OCC(C)(C)C)cc2F)n(S(=O)(=O)c2cccnc2)c1 [Compound 45] | 204
CNCc1cc(-c2ccc(OCc3ccc(F)c(F)c3)cc2F)n(S(=O)(=O)c2cccnc2)c1 [Compound 57] | 46.3

The remaining lines, values ahead:

IC50 [nM] | SMILES
66.7 | CNCc1cc(-c2ccc(OCc3cccnc3F)cc2F)n(S(=O)(=O)c2cccnc2)c1 [Compound A1]
128 | CNCc1cc(-c2ccc(OCC3CCOC3)cc2F)n(S(=O)(=O)c2cccnc2)c1 (stereo not drawn) [Compound A13]
18.4 | CNCc1cc(-c2ccc(OCc3ccn(C)n3)cc2F)n(S(=O)(=O)c2cccnc2)c1 [Compound A8]
9780 | CNCc1cc(-c2ccc(OC(C)c3c(F)cccc3F)cc2F)n(S(=O)(=O)c2cccc(OCC3CCCC3)c2)c1 (stereo not drawn) [Compound 85]
72.6 | CNCc1cc(-c2ccc(OCCc3cc(F)cc(F)c3)cc2F)n(S(=O)(=O)c2cccnc2)c1 [Compound 99]
485 | CNCc1cc(-c2ccc(OCc3cc(F)ccc3F)cc2F)n(S(=O)(=O)c2cccc(C(F)(F)F)c2)c1 [Compound 98]
88.1 | CNCc1cc(-c2ccc(OC(C)c3cc(F)cc(F)c3)cc2F)n(S(=O)(=O)c2cccc(C#N)c2)c1 (stereo not drawn) [Compound 70]
101 | CNCc1cc(-c2ccc(OCc3ccoc3)cc2F)n(S(=O)(=O)c2cccnc2)c1 [Compound 100]
2690 | CNCc1cc(-c2ccc(OCc3ccc4ccccc4c3)cc2F)n(S(=O)(=O)c2cccc(OCCCCOC)c2)c1 [Compound 90]
56.6 | CNCc1cc(-c2ccc(OCc3cc(F)ccc3F)cc2F)n(S(=O)(=O)c2ccc(C)c(F)c2)c1 [Compound 81]
48.4 | CNCc1cc(-c2ccc(OCc3cccc4c3OCO4)cc2F)n(S(=O)(=O)c2cccnc2)c1 [Compound 94]
496 | CNCc1cc(-c2ccc(OC(C)c3cc(F)cc(F)c3)cc2F)n(S(=O)(=O)c2cccc(OCC3CC3)c2)c1 (stereo not drawn) [Compound 71]
36.6 | CNCc1cc(-c2ccc(OCc3ccccc3OC)cc2F)n(S(=O)(=O)c2cccnc2)c1 [Compound 75]
470 | CNCc1cc(-c2ccc(O[C@H](C)c3c(Cl)ccc(F)c3Cl)cc2F)n(S(=O)(=O)c2cccnc2)c1 [Compound 76]
9.5 | CNCc1cc(-c2ccc(OCc3cccc4c3OCO4)cc2F)n(S(=O)(=O)c2cccc(C#N)c2)c1 [Compound 95]
11.9 | CNCc1cc(-c2ccc(OCc3cccc4c3OCCO4)cc2F)n(S(=O)(=O)c2cccc(C#N)c2)c1 [Compound 97]
209 | CNCc1cc(-c2ccc(OCc3ccc(C)cc3C)cc2F)n(S(=O)(=O)c2cccnc2)c1 [Compound 73]

Each compound was assayed on histamine-induced gastric acid secretion (assay: Inhibition of histamine-induced gastric acid secretion in rats (pylorus ligation)). Settings: SD rats, 2 mg/kg by gavage, total acid over 3 h after histamine.
Assay type: in vivo, rat
Method: 70 SPF-level SD rats with a weight of 180-220 g (Hangzhou Medical College (produced)), randomly grouped by weight, including negative control groups (isovolumetric saline) and model control groups (isovolumetric saline), and compounds obtained in the foregoing preparation examples of the present invention (i.e., compounds or compound hydrochlorides) (2 mg/kg or 4 mg/kg), 10 rats each group, including 5 males and 5 females. The rats were fasted, but were allowed to drink water for 24 h. After 24 h, the rats were given the compound at 1 ml/100 g by gavage, once in each group, and the rats in the negative control groups and the model groups were given an equal volume of saline by gavage. After that, the rats were anesthetized with chloral hydrate 300 mg/kg (1 ml/100 g) and fixed on a rat plate, and the abdominal wall was incised along the abdominal midline from the subxiphoid process of the sternum, and the incision was approximately 2-3 cm and was made on the left costal margin, and the stomach was exposed to the incision by gently pushing it with the fingers upwards. The pylorus was ligated with a thread under the pylorus (other neighboring vessels were not ligated), and the abdominal wall incision was sutured. The animals were given histamine dihydrochloride (30 mg/10 ml/kg) subcutaneously after 1 h of gavage of the test compound or saline. After 3 h of histamine administration, the rats were asphyxiated with excess CO2, stomachs were removed, stomach contents were collected and centrifuged at 3000 rpm/min for 10 min, and the acid solution was titrated with 0.1 mol/L NaOH to pH7.0. The total acidity and acid inhibition rate during the 3 h period were calculated.
Acid inhibition rate (%)=(Total acid in the model group−total acid in the test group)/total acid in the model group×100%

SMILES | Acid inhibition rate [%]
CNCc1cc(-c2ccc(OCc3cccnc3F)cc2F)n(S(=O)(=O)c2cccnc2)c1 [Compound A1] | 68
CNCc1cc(-c2ccc(OCc3ccc(OC)nc3)cc2F)n(S(=O)(=O)c2cccnc2)c1 [Compound A4] | 60
CNCc1cc(-c2ccc(OC(C)c3c(F)cccc3F)cc2F)n(S(=O)(=O)c2cccnc2)c1 (stereo not drawn) [Compound 67] | 64
CNCc1cc(-c2ccc(OCC3CCOC3)cc2F)n(S(=O)(=O)c2cccnc2)c1 (stereo not drawn) [Compound A13] | 60
CNCc1cc(-c2ccc(OCc3cccnn3)cc2F)n(S(=O)(=O)c2cccnc2)c1 [Compound A7] | 53
CNCc1cc(-c2ccc(OCC3CCO3)cc2F)n(S(=O)(=O)c2cccnc2)c1 (stereo not drawn) [Compound A15] | 64
CNCc1cc(-c2ccc(OC(C)C3CCOCC3)cc2F)n(S(=O)(=O)c2cccc(OCCCOC)c2)c1 (stereo not drawn) [Compound 37] | 56
CNCc1cc(-c2ccc(OCc3ccn(C)n3)cc2F)n(S(=O)(=O)c2cccnc2)c1 [Compound A8] | 58
CNCc1cc(-c2ccc(OCC3CCCO3)cc2F)n(S(=O)(=O)c2cccnc2)c1 (stereo not drawn) [Compound A14] | 63
